From US11053239B2, “Compounds as BLC-2-selective apoptosis-inducing agents” (Fochon Pharmaceuticals, Ltd., priority 2017, dated 2021)
Where two headings read alike, the source gives them in different places.

Tests used:
RS4; 11 cells = experiment: Cell proliferation assay (MTS), RS4; 11 cells; format: cell-based; settings: read-out: RS4
Text: (§1) MTS testing kit was purchased from Promega. The RPMI-1640, Fetal bovine serum and Penicillin-Streptomycin were purchased from Gibco. Dimethyl sulfoxide (DMSO) was purchased from Sigma.
(§2) To investigate whether a compound is able to inhibit the activity of Bcl-2 in cells, a mechanism-based assay using DOHH2 (DSMZ No.® ACC 47) and RS4; 11 (ATCC® CRL-1873™) cell was developed. In this assay, inhibition of Bcl-2 was detected by the inhibition of DOHH2 and RS4; 11 cells proliferation. DOHH2 and RS4; 11 cells were cultured in culture flasks to 40-80% confluence in RPMI-1640 plus 10% fetal bovine serum. Cells were collected and plated onto 96-well plates at desired cell density (DOHH2: 5000 cells/well; RS4; 11: 30000 cells/well). Plates were incubated overnight at 37° C., with 5% CO2 to adhere. Compounds were added to the plates, and the final compound concentrations were 10000, 3333, 1111, […], 124, 41, 14, 4.6 and 1.5 nM. Plates plated with DOHH2 or RS4; 11 cells were placed at 37° C., with 5% CO2 for 120 h (DOHH2) or 72 h (RS4; 11) respectively. 20 μl MTS/100 μl medium mixture solution were added to each well and incubate the plates for exactly 2 hours. The reaction was stopped by adding 25 μl 10% SDS per well. Measure absorbance at 490 nm and 650 nm (reference wavelength). ICso was calculated using GraphPad Prism 5.0.

DOHH2 cells = experiment: Cell proliferation assay (MTS), DOHH2 cells; format: cell-based
Text: as §1, §2

[1] = Homo sapiens, RS4-11, 72 h, RS4, 11 (ATCC CRL-1873) cell proliferation, 30000 cells/well, 72 h, MTS, mechanism-based readout of Bcl-2 inhibition, 11 IC50
[2] = Homo sapiens, DOHH-2, 120 h, DOHH2 (DSMZ ACC 47) cell proliferation, 5000 cells/well, 120 h, MTS, mechanism-based readout of Bcl-2 inhibition, read-out: DOHH2 IC50

IC50 (RS4; 11 cells; [1]) [nM] | SMILES | IC50 (DOHH2 cells; [2]) [nM] | other results
109 | COC(=O)N=S1(=O)CCN(CC[C@H](C)Nc2ccc(S(=O)(=O)NC(=O)c3ccc(N4CCN(CC5=C(c6ccc(Cl)cc6)CC(C)(C)CC5)CC4)cc3Oc3cnc4[nH]ccc4c3)cc2S(=O)(=O)C(F)(F)F)CC1 [Example 92, methyl (S)-(4-(3-((4-(N-(2-((1H-pyrrolo[2,3-b]pyridin-5-yl)oxy)-4-(4-((4′-chloro-5,5-dimethyl-3,4,5,6-tetrahydro-[1,1′-biphenyl]-2-yl)methyl)piperazin-1-yl)benzoyl)sulfamoyl)-2-((trifluoromethyl)sulfonyl)phenyl)amino)butyl)-1-oxido-1λ^6-thiomorpholin-1-ylidene) carbamate] | 53 | –
163 | CC1(C)CCC(CN2CCN(c3ccc(C(=O)NS(=O)(=O)c4ccc(NCCN5CCP(C)(=O)CC5)c([N+](=O)[O-])c4)c(Oc4cnc5[nH]ccc5c4)c3)CC2)=C(c2ccc(Cl)cc2)C1 [Example 2, 2-((1H-pyrrolo[2,3-b]pyridin-5-yl)oxy)-4-(4-((4′-chloro-5,5-dimethyl-3,4,5,6-tetrahydro-[1,1′-biphenyl]-2-yl)methyl)piperazin-1-yl)-N-((4-((2-(4-methyl-4-oxido-1,4-azaphosphinan-1-yl)ethyl)amino)-3-nitrophenyl)sulfonyl)benzamide] | 427 | –
36 | CCOC(=O)N=S1(=O)CCN(CC[C@H](C)Nc2ccc(S(=O)(=O)NC(=O)c3ccc(N4CCN(CC5=C(c6ccc(Cl)cc6)CC(C)(C)CC5)CC4)cc3Oc3cnc4[nH]ccc4c3)cc2[N+](=O)[O-])CC1 [Example 85, ethyl (S)-(4-(3-((4-(N-(2-((1H-pyrrolo[2,3-b]pyridin-5-yl)oxy)-4-(4-((4′-chloro-5,5-dimethyl-3,4,5,6-tetrahydro-[1,1′-biphenyl]-2-yl)methyl)piperazin-1-yl)benzoyl)sulfamoyl)-2-nitrophenyl)amino)butyl)-1-oxido-1λ^6-thiomorpholin-1-ylidene) carbamate] | 30 | –
27 | CN=S1(=O)CCN(CC[C@H](C)Nc2ccc(S(=O)(=O)NC(=O)c3ccc(N4CCN(CC5=C(c6ccc(Cl)cc6)CC(C)(C)CC5)CC4)cc3Oc3cnc4[nH]ccc4c3)cc2[N+](=O)[O-])CC1 [Example 94, (S)-2-((1H-pyrrolo[2,3-b]pyridin-5-yl)oxy)-4-(4-((4′-chloro-5,5-dimethyl-3,4,5,6-tetrahydro-[1,1′-biphenyl]-2-yl)methyl)piperazin-1-yl)-N-((4-((4-(1-(methylimino)-1-oxido-1λ^6-thiomorpholino)butan-2-yl)amino)-3-nitrophenyl)sulfonyl) benzamide] | 15 | –
102 | COC(=O)N=S1(=O)CCN(CCNc2ccc(S(=O)(=O)NC(=O)c3ccc(N4CCN(CC5=C(c6ccc(Cl)cc6)CC(C)(C)CC5)CC4)cc3Oc3cnc4[nH]ccc4c3)cc2[N+](=O)[O-])CC1 [Example 43, methyl (4-(2-((4-(N-(2-((1H-pyrrolo[2,3-b]pyridin-5-yl)oxy)-4-(4-((4′-chloro-5,5-dimethyl-3,4,5,6-tetrahydro-[1,1′-biphenyl]-2-yl)methyl)piperazin-1-yl)benzoyl)sulfamoyl)-2-nitrophenyl)amino)ethyl)-1-oxido-1λ^6-thiomorpholin-1-ylidene) carbamate] | 271 | –
94 | CC(C)OC(=O)N=S1(=O)CCN(C[C@H](C)Nc2ccc(S(=O)(=O)NC(=O)c3ccc(N4CCN(CC5=C(c6ccc(Cl)cc6)CC(C)(C)CC5)CC4)cc3Oc3cnc4[nH]ccc4c3)cc2[N+](=O)[O-])CC1 [Example 73, isopropyl (S)-(4-(2-((4-(N-(2-((1H-pyrrolo[2,3-b]pyridin-5-yl)oxy)-4-(4-((4′-chloro-5,5-dimethyl-3,4,5,6-tetrahydro-[1,1′-biphenyl]-2-yl)methyl)piperazin-1-yl)benzoyl)sulfamoyl)-2-nitrophenyl)amino)propyl)-1-oxido-1λ^6-thiomorpholin-1-ylidene)carbamate] | 263 | –
111 | C[C@@H](CN1CCP(C)(=O)CC1)Nc1ccc(S(=O)(=O)NC(=O)c2ccc(N3CCN(CC4=C(c5ccc(Cl)cc5)CC(C)(C)CC4)CC3)cc2Oc2cnc3[nH]ccc3c2)cc1[N+](=O)[O-] [Example 17, (S)-2-((1H-pyrrolo[2,3-b]pyridin-5-yl)oxy)-4-(4-((4′-chloro-5,5-dimethyl-3,4,5,6-tetrahydro-[1,1′-biphenyl]-2-yl)methyl)piperazin-1-yl)-N-((4-((1-(4-methyl-4-oxido-1,4-azaphosphinan-1-yl)propan-2-yl)amino)-3-nitrophenyl)sulfonyl)benzamide] | 132 | –
– | CCN=S1(=O)CCN(CC[C@H](C)Nc2ccc(S(=O)(=O)NC(=O)c3ccc(N4CCN(CC5=C(c6ccc(Cl)cc6)CC(C)(C)CC5)CC4)cc3Oc3cnc4[nH]ccc4c3)cc2S(=O)(=O)C(F)(F)F)CC1 [Example 87, (S)-2-((1H-pyrrolo[2,3-b]pyridin-5-yl)oxy)-4-(4-((4′-chloro-5,5-dimethyl-3,4,5,6-tetrahydro-[1,1′-biphenyl]-2-yl)methyl)piperazin-1-yl)-N-((4-((4-(1-(ethylimino)-1-oxido-1λ^6-thiomorpholino)butan-2-yl)amino)-3-((trifluoromethyl)sulfonyl)phenyl)sulfonyl) benzamide] | – | IC50 (RS4; 11 cells; RS4, 11 (ATCC CRL-1873) cell proliferation, 30000 cells/well, 72 h, MTS, mechanism-based readout of Bcl-2 inhibition, 11 IC50): 145 nM; IC50 (DOHH2 cells; DOHH2 (DSMZ ACC 47) cell proliferation, 5000 cells/well, 120 h, MTS, mechanism-based readout of Bcl-2 inhibition, read-out: DOHH2 IC50): 266 nM
7 | CC1(C)CCC(CN2CCN(c3ccc(C(=O)NS(=O)(=O)c4ccc(NCC5CCC(N=S6(=O)CCCC6)CC5)c([N+](=O)[O-])c4)c(Oc4cnc5[nH]ccc5c4)c3)CC2)=C(c2ccc(Cl)cc2)C1 (centres unmarked) [Example 53, 2-((1H-pyrrolo[2,3-b]pyridin-5-yl)oxy)-4-(4-((4′-chloro-5,5-dimethyl-3,4,5,6-tetrahydro-[1,1′-biphenyl]-2-yl)methyl)piperazin-1-yl)-N-((3-nitro-4-(((4-((1-oxidotetrahydro-1λ^6-thiophen-1-ylidene)amino)cyclohexyl)methyl)amino)phenyl)sulfonyl)benzamide] | 11 | –
21 | COC(=O)N=S1(=O)CCN(C[C@H](C)Nc2ccc(S(=O)(=O)NC(=O)c3ccc(N4CCN(CC5=C(c6ccc(Cl)cc6)CC(C)(C)CC5)CC4)cc3Oc3cnc4[nH]ccc4c3)cc2[N+](=O)[O-])CC1 [Example 44, methyl (S)-(4-(2-((4-(N-(2-((1H-pyrrolo[2,3-b]pyridin-5-yl)oxy)-4-(4-((4′-chloro-5,5-dimethyl-3,4,5,6-tetrahydro-[1,1′-biphenyl]-2-yl)methyl)piperazin-1-yl)benzoyl)sulfamoyl)-2-nitrophenyl)amino)propyl)-1-oxido-1λ^6-thiomorpholin-1-ylidene) carbamate] | 20 | –
– | CCS(=O)(CC)=NC1CCC(CNc2ccc(S(=O)(=O)NC(=O)c3ccc(N4CCN(CC5=C(c6ccc(Cl)cc6)CC(C)(C)CC5)CC4)cc3Oc3cnc4[nH]ccc4c3)cc2[N+](=O)[O-])CC1 (centres unmarked) [Example 9B, 2-((1H-pyrrolo[2,3-b]pyridin-5-yl)oxy)-4-(4-((4′-chloro-5,5-dimethyl-3,4,5,6-tetrahydro-[1,1′-biphenyl]-2-yl)methyl)piperazin-1-yl)-N-((4-((((1r,4r)-4-((diethyl(oxo)-λ^6-sulfanylidene)amino)cyclohexyl)methyl)amino)-3-nitrophenyl)sulfonyl)benzamide] | – | IC50 (RS4; 11 cells; Homo sapiens, RS4-11, 72 h, 11 IC50 (nM)): 5 nM; IC50 (DOHH2 cells; Homo sapiens, DOHH-2, 120 h, read-out: DOHH2 IC50 (nM)): 11 nM
60 | CC1(C)CCC(CN2CCN(c3ccc(C(=O)NS(=O)(=O)c4ccc(NCCN5CCS(=O)(=NC6CC6)CC5)c([N+](=O)[O-])c4)c(Oc4cnc5[nH]ccc5c4)c3)CC2)=C(c2ccc(Cl)cc2)C1 [Example 35, 2-((1H-pyrrolo[2,3-b]pyridin-5-yl)oxy)-4-(4-((4′-chloro-5,5-dimethyl-3,4,5,6-tetrahydro-[1,1′-biphenyl]-2-yl)methyl)piperazin-1-yl)-N-((4-((2-(1-(cyclopropylimino)-1-oxido-1λ^6-thiomorpholino)ethyl)amino)-3-nitrophenyl)sulfonyl)benzamide] | 181 | –
54 | C[C@@H](CN1CCP(C)(=O)CC1)Nc1ccc(S(=O)(=O)NC(=O)c2ccc(N3CCN(CC4=C(c5ccc(Cl)cc5)CC(C)(C)CC4)CC3)cc2Oc2cnc3[nH]ccc3c2)cc1S(=O)(=O)C(F)(F)F [Example 49, (S)-2-((1H-pyrrolo[2,3-b]pyridin-5-yl)oxy)-4-(4-((4′-chloro-5,5-dimethyl-3,4,5,6-tetrahydro-[1,1′-biphenyl]-2-yl)methyl)piperazin-1-yl)-N-((4-((1-(4-methyl-4-oxido-1,4-azaphosphinan-1-yl)propan-2-yl)amino)-3-((trifluoromethyl)sulfonyl)phenyl)sulfonyl)benzamide] | 107 | –
